According to patent US20110289632A1, “METHYLKETONE SYNTHASE, PRODUCTION OF METHYLKETONES IN PLANTS AND BACTERIA” (The Regents of the University of Michigan, priority 2009, published 2011):

Assays:
[1] = test system: E. coli cells; assay: GC-MS of methylketones in spent media of E. coli cells expressing ShMKS1, ShMKS2 or ShMKS2 (D79A); format: cell-based, Escherichia coli
Procedure: To test if expression of either ShMKS1 or ShMKS2 (without its transit peptide) in E. coli results in the formation of 3-ketoacids, we collected spent media of bacterial cells expressing each of them (by centrifuging out the cells at the end of the incubation period), heated the spent media at 75° C. for 30 min in the presence of 1 M sulfuric acid, extracted with hexane, then injected the hexane fraction in a GC-MS. […] On the other hand, the spent medium of E. coli cells expressing ShMKS2 contained 5.6±0.32 μg/μL of total methylketones, and the amount of methylketones increased […], to 40.7±2.1 μg/μL, after the spent medium was treated with acid and heat (FIG. 17).
The coding regions of ShMKS1 and ShMKS2 (minus the transit peptide-encoding region) were each amplified by PCR and inserted into the E. coli expression vector pEXP-TOPO-CT (Invitrogen). The expression vectors were introduced into E. coli BL21 Star (DE3) cells, and gene expression was induced by the addition of 0.5 mM IPTG after the culture optical density at 600 nm had reached 0.65. After induction with IPTG and growth at 18° C. overnight, the cells expressing ShMKS1 or ShMKS2 were centrifuged at 5000 rpm for 15 minutes, and 1-mL aliquots of the spent medium were placed in individual vials for further analysis.
Aliquots (1 mL) of the spent medium of E. coli expressing ShMKS2, obtained by centrifuging the culture solution after the incubation time at 5,000 rpm for 15 min and collecting the solution without the cells, were treated in the following ways: 1. Incubated with 40 μl (3 μg) of purified MKS1 in phosphate buffer (12.5 mM NaH2PO4, 125 mM NaCl, 2 mM DTT, pH 6.8) for 2 hrs at 30° C. 3. Incubated at 75° C. for 30 min followed by 30 min at 30° C. 4. Incubated with 1 mL of 2M H2SO4 at 75° C. for 30 min followed by 30 min at 30° C. After the various treatments, 1 mL of hexane containing 5 ng/μL linalool as an internal standard was added and the resulting mixture was vortexed and centrifuged at 5000 rpm for 10 min. Two μL of the resulting extract were injected into the GC-MS for determination of methylketones. GC-MS and product analysis were performed as described by Ben-Israel et al, (2009) Multiple biochemical and morphological factors underlie the production of methylketones in tomato trichomes, Plant Physiology 151: 1952-1964.

[2] = test system: E. coli BL21 cells; assay: Headspace SPME GC-MS of E. coli cultures expressing ShMKS2 or SlMKS2; format: cell-based, Escherichia coli; conditions: IPTG induction, overnight growth
Procedure: To investigate the biochemical activity of MKS2, the full ORFs of the wild-species allele (ShMKS2) and the cultivated allele (SlMKS2) were amplified and ligated into an E. coli expression vector (see Examples, Materials and Methods). These vectors were introduced into E. coli BL21cells and ShMKS2 or SlMKS2 expression was induced by the addition of IPTG (see Examples, Materials and Methods). After induction and overnight growth, the culture was analyzed by solid-phase microextraction (SPME) of its headspace followed by gas chromatography-mass spectrometry (GC-MS; see Examples, Materials and Methods). The major compound in the headspace of the E. coli cells expressing ShMKS2 was identified as 2TD (FIG. 8A). Lower amounts of 2UD and 2-pentadecanone were also detected, as well as the reduced alcohol forms of 2UD and 2TD (i.e., 2-undecanol and 2-tridecanol). […] The headspace also contained 2-nonanol and 2-undecanol (FIG. 8B). However, the major headspace compound produced by SlMKS2-expressing cells eluted slightly later than 2TD (peak labeled “1” in FIG. 8B, and also present at lower levels in the chromatograph in FIG. 8A).
The sequence of these cDNAs was verified and transferred into the E. coli expression vector pHis9GW following Auldridge et al. (submitted). The pHis9GW vectors carrying ShMKS2 or SlMKS2 were mobilized into E. coli […] cells, and gene expression was induced by the addition of 2 mM IPTG after the culture OD595 value had reached 0.6-0.7. After IPTG addition, ShMKS2- and SlMKS2-expressing bacterial cells were grown at 30° C. or 18° C. overnight.
After induction with IPTG and growth overnight, 1 mL of culture was placed in a glass vial at 42° C. The vial was capped with a screw cap in which a small hole had been bored. The needle of a SPME device was inserted into the vial through the hole in the cap and the fiber extended for 30 min. for volatile collection, after which the fiber was withdrawn and then injected into the GC. […]

[3] = In vitro decarboxylase activity assay; format: biochemical; conditions: substrate 3-ketomyristic acid
Procedure: To examine the possible decarboxylase activity of ShMKS1 as well as ShMKS2 in vitro, we tested homogenous recombinant ShMKS1 and partially purified recombinant ShMKS2 proteins (without their transit peptides) for their ability to convert 3-ketomyristic acid into its 2-tridecanone decarboxylated product. […] In steady-state kinetic assays, ShMKS1 was determined to have a KM of 18.4±5.6 μM for 3-ketomyristic acid, with an apparent kcat of 227.9±24.1 min^−1.
A typical decarboxylase assay consisted of a 500 μL reaction solution containing ShMKS1 or ShMKS2 (2.5 μg), 3-ketomyristic acid (0.1 mM), and 1,3-bis(tris(hydroxymethyl)methylamino) propane—Na^+ (20 mM, pH 7.0). For measuring kinetic parameters, substrate concentrations ranged from 5 μM to 75 μM. Assays were performed at 23° C. for 10 min after addition of protein. […] Reaction products (5 μL) were analyzed by a modified procedure, as described in O'Maille et al (2004) A single-vial analytical and quantitative gas chromatography-mass spectrometry assay for terpene synthases. […] Product quantification was performed using total ion monitoring (TIM) mode where all ions in the mass spectrum contribute to the measured response. […] 2-Tridecanone was quantified by integration of peak areas using Enhanced Chemstation (version B.01.00, Agilent Technologies). […]

[4] = test system: 3-ketomyristoyl-ACP; assay: In vitro thioesterase activity assay; format: biochemical; conditions: 2.5 μg protein, 30 min at 23° C., then acid and heat
Procedure: To examine the potential thioesterase activity of ShMKS1 and ShMKS2 in vitro, we added 2.5 μg of each protein to a 500 μL solution of freshly prepared 3-ketomyristoyl-ACP. This protein-linked substrate was prepared using a sequential in vitro enzymatic system involving the addition of multiple starting materials and enzymes and the reaction allowed to proceed for 5 hr (see Examples, Materials, and Methods). Due to the highly unstable nature of 3-ketomyristoyl-ACP, this compound was not further purified but instead the solution in which it was synthesized was used as the “substrate solution” for qualitative in vitro thioesterase activity assays.
Aliquots of this substrate solution were incubated with buffer, ShMKS1, ShMKS2, or both ShMKS1 and ShMKS2 for 30 min at 23° C. […]
3-Ketomyristoyl-ACP was synthesized in a 500 μL reaction volume containing 1,3-bis(tris(hydroxymethyl)methylamino) propane (20 mM, pH 7.0), malonyl-CoA (0.2 mM), lauroyl-CoA (0.2 mM), ShACP (0.1 mM), EcFabD (10 μg) and MtFabH (10 μg). […] Hexane extracts were analyzed by GC-MS as described above. The values for heat-treated samples shown in FIG. 20 were corrected for loss of methylketones during the heating step, as determined by comparisons with standards.

[5] = combined heat and acid treatment
[6] = heated at 75° C. for 30 min, no sulfuric acid

ShMKS2: methylketone synthase 2 from Solanum habrochaites glabratum (SEQ ID NO: 4 / 25); thioesterase hydrolyzing 3-ketoacyl-ACPs
increase of amount of methylketones after acid and heat treatment ([1]; acid and heat treated vs untreated spent medium): 8 fold | total methylketones in spent medium ([1]; after spent medium was treated with acid and heat (1 M sulfuric acid, 75° C., 30 min)): 40.7 ± 2.1 µg/µL | 2-nonanone in spent medium [1, 5]: 0.95 ± 0.04 µg/µL | 2-nonanone, fold over non-treated control [1, 5]: 19.1 fold | 2-pentadecenone in spent medium [1, 5]: 5.69 ± 0.21 µg/µL | 2-pentadecenone, fold over non-treated control [1, 5]: 4.4 fold | 2-tridecanone in spent medium [1, 5]: 11.99 ± 0.51 µg/µL | 2-tridecanone, fold over non-treated control [1, 5]: 4.6 fold | 2-tridecenone in spent medium [1, 5]: 13.04 ± 0.63 µg/µL | 2-tridecenone, fold over non-treated control [1, 5]: 11.8 fold | 2-undecanone in spent medium [1, 5]: 9.33 ± 0.61 µg/µL | 2-undecanone, fold over non-treated control [1, 5]: 18.3 fold | 2-nonanone, fold over non-treated control ([1]; heat only): 11.9 fold | 2-pentadecenone, fold over non-treated control ([1]; heat only): 3.0 fold | 2-tridecanone, fold over non-treated control ([1]; heat only): 3.7 fold | 2-tridecenone, fold over non-treated control ([1]; heat only): 9 fold | 2-undecanone, fold over non-treated control ([1]; heat only): 12.2 fold | 2-nonanone in spent medium [1, 6]: 0.60 ± 0.05 µg/µL | 2-pentadecenone in spent medium [1, 6]: 3.94 ± 0.54 µg/µL | 2-tridecanone in spent medium [1, 6]: 9.61 ± 0.27 µg/µL | 2-tridecenone in spent medium [1, 6]: 9.94 ± 0.83 µg/µL | 2-undecanone in spent medium [1, 6]: 6.22 ± 0.34 µg/µL | 2-nonanone in spent medium ([1]; untreated spent medium): 0.05 µg/µL | 2-pentadecenone in spent medium ([1]; untreated spent medium): 1.3 µg/µL | 2-tridecanone in spent medium ([1]; untreated spent medium): 2.6 µg/µL | 2-tridecenone in spent medium ([1]; untreated spent medium): 1.1 µg/µL | 2-undecanone in spent medium ([1]; untreated spent medium): 0.51 µg/µL | total methylketones in spent medium ([1]; untreated spent medium): 5.6 ± 0.32 µg/µL | major compound in the headspace of E. coli cells expressing the enzyme [2]: 2TD | decarboxylase activity [3]: no decarboxylase activity | amount of 2-tridecanone formed vs buffer-incubated substrate solution treated with acid and heat [4]: approximately 3 fold

SlMKS2: methylketone synthase 2, cultivated tomato S. lycopersicum allele (SEQ ID NO: 3)
major compound in the headspace of E. coli cells expressing the enzyme [2]: 2-tridecenone | two main MK in the headspace [2]: 2UD as well as 2-nonanone
